Assay results: patent publication US7384788B2, “Regulator/promoter for tunable gene expression and metabolite sensing” (priority 2003, dated 2008)

Legend:
luxCDABE gene fusions = settings: cited from earlier work
[1] = test system: yhcRQP-luxCDABE gene fusion; test: Bioluminescence response in yhcS+ strain DPD2436 (MG1655 host); type: cell-based, E. coli; settings: thirty minutes, LB pH 7.0
Source text: A derivative of E. coli strain MG1655 (obtained from Prof. Douglas Berg, Washington University School of Medicine, St. Louis, […].) with the yhcS::TN<Kan> mutation was made by P1clr100Cm mediated transduction using phage grown on strain DPD2410 as a donor and selection for kanamycin resistance. […] Plasmid pDEW655 was moved to E. coli strains MG1655 and DPD2433 by transformation, selecting for Ampicillin resistance to generate strains DPD2436 and DPD2437, respectively. The bioluminescent response of these two strains to pHBA was tested. Aliquots (50 μl) of actively growing cultures at 37° C. in LB medium that had been previously diluted, and from overnight cultures in LB medium with 150 μg/ml Ampicillin were added to 50 μl of LB medium at pH 7.0 containing pHBA as the sodium salt form. Several concentrations of pHBA were tested.
Further characterization of the signals that trigger activation of YhcS, was done using the yhcRQP-luxCDABE gene fusion containing E. coli strains DPD2411 or DPD2436.

[2] = test system: yhcRQP-luxCDABE gene fusion; test: Bioluminescence kinetics in yhcS+ strain DPD2413 (DH5alphaE host), FIG. 1; type: cell-based, E. coli; settings: 5 mM pHBA acid form, yhcS+ strain DPD2413, LB medium
Method: (§1) E. coli strain DPD2410 is the DH5αE derived strain containing the yhcS::TN<Kan> mutation. Strains DH5αE and DPD2410 were transformed with pDEW655 to generate E. coli strains DPD2413 and DPD2415, respectively. […] The plate was incubated for 90 minutes at 37° C.; then 50 μl of the cultures was added to 50 μl of LB medium or to 50 μl of LB medium containing pHBA in the acid form, which had been added from a stock solution in ethanol. The final concentration of pHBA was 5 mM and the final concentration of ethanol was 0.25%. The pH of the medium with pHBA was lowered by an unmeasured amount. The bioluminescence was quantitated with a Luminoskan Ascent microplate luminometer (Thermo Labsystems, Franklin, Mass.). The results of this study are presented in FIG. 1, which is a plot of the bioluminescence intensity in relative light units (RLU) versus time in minutes. In the Figure, addition of pHBA was made at time zero. Solid lines are the response in the yhcS^+ strain, DPD2413. Dotted lines are the response in the yhcS^− strain, DPD2415. Circles represent pHBA treated cultures and triangles represent untreated cultures.

[3] = test system: yhcRQP-luxCDABE gene fusion; test: Bioluminescence kinetics in yhcS- strain DPD2415 (yhcS::TN<Kan>), FIG. 1; type: cell-based, E. coli; settings: 5 mM pHBA acid form, yhcS::TN<Kan> strain DPD2415, LB medium
Method: as §1

E. coli strain DE112 = test: Growth inhibition by pHBA treatment; type: cell-based; settings: Escherichia coli, 25 mM pHBA (acid form), Vogel-Bonner minimal medium with glucose
Method: (§2) The alterations in the E. coli gene expression profile upon exposure to pHBA were examined using DNA microarray technology. E. coli strain DE112 (Van Dyk et al. Appl. Environ. Microbiol. 60:1414-1420 (1994)) was grown in Vogel-Bonner minimal medium with glucose as a carbon source to an OD600 of 0.2. At this point the culture was split in two flasks and pHBA in the acid form was added to one flask from a stock solution in ethanol to achieve a final pHBA concentration of 25 mM. The pH of the medium in the flask with pHBA was lowered by an unmeasured amount. An equivalent volume of ethanol without pHBA was added to the other flask. Approximately 58% growth inhibition resulted from the pHBA treatment under these conditions. Cells were harvested from the control and treated flasks at 30 and 60 minutes after pHBA addition. RNA isolation, array hybridization, and data analysis were done as previously described (Wei et al, J. Bacteriol. 183:545-556 (2001), Smulski et al. J. Bacteriol. 183:3353-3364 (2001)). […] These three genes are predicted to be transcribed as an operon. The reproducible observed co-regulation in response to pHBA treatment is consistent with this prediction. Thus, these three genes will be referred to as the yhcRQP operon.

yhcR = test: DNA microarray gene expression profiling of pHBA-treated E. coli; type: cell-based; settings: 25 mM pHBA, 60 minutes
Method: as §2

yhcP = test: as above; type: cell-based; settings: 25 mM pHBA, 60 minutes
Method: as §2

yhcQ = test: as above; type: cell-based; settings: 25 mM pHBA, 60 minutes
Method: as §2

[4] = test system: yhcRQP-luxCDABE gene fusion; test: Bioluminescence response in yhcS- strain DPD2437 (yhcS::TN<Kan>); type: cell-based, E. coli; settings: thirty minutes, LB pH 7.0
Source text: A derivative of E. coli strain MG1655 (obtained from Prof. Douglas Berg, Washington University School of Medicine, St. Louis, […].) with the yhcS::TN<Kan> mutation was made by P1clr100Cm mediated transduction using phage grown on strain DPD2410 as a donor and selection for kanamycin resistance. The presence of the yhcS::TN<Kan> mutation in one of the resultant transductants, named DPD2433, was confirmed by PCR amplification. Plasmid pDEW655 was moved to E. coli strains MG1655 and DPD2433 by transformation, selecting for Ampicillin resistance to generate strains DPD2436 and DPD2437, respectively. The bioluminescent response of these two strains to pHBA was tested. Aliquots (50 μl) of actively growing cultures at 37° C. in LB medium that had been previously diluted, and from overnight cultures in LB medium with 150 μg/ml Ampicillin were added to 50 μl of LB medium at pH 7.0 containing pHBA as the sodium salt form. Several concentrations of pHBA were tested.

## CCn1cc(C(=O)O)c(=O)c2ccc(C)nc21 [nalidixic acid]
luxCDABE gene fusions
  up-regulation of genes in luxCDABE gene fusion collection: selective up-regulation of ten genes

## O=C(O)c1ccc(O)cc1 [pHBA, para-hydroxybenzoic acid]
[1]; 1.6 mM pHBA sodium salt
  RLU yhcS+: 6.72 RLU
  Ratio treated/control yhcS+: 10.6
[1]; 3.1 mM pHBA sodium salt
  RLU yhcS+: 10.2 RLU
  Ratio treated/control yhcS+: 16.2
[1]; 6.2 mM pHBA sodium salt
  RLU yhcS+: 16.2 RLU
  Ratio treated/control yhcS+: 25.7
[1]; 12.5 mM pHBA sodium salt
  RLU yhcS+: 30.8 RLU
  Ratio treated/control yhcS+: 48.8
[1]; 25 mM pHBA sodium salt
  RLU yhcS+: 66.6 RLU
  Ratio treated/control yhcS+: 106
[1]; 50 mM pHBA sodium salt
  RLU yhcS+: 91.7 RLU
  Ratio treated/control yhcS+: 145
[1]; 100 mM pHBA sodium salt
  RLU yhcS+: 0.437 RLU
  Ratio treated/control yhcS+: 0.693
[2]
  upregulation of yhcRQP-luxCDABE expression (in words, FIG. 1): rapid and dramatic upregulation
[3]
  upregulation of yhcRQP-luxCDABE expression (in words, FIG. 1): essentially abolished
E. coli strain DE112
  inhibition at 25000 µM: ~58%
yhcR; experiment 1
  Ratio (treated/untreated): 72.3
  Signal in pHBA treated: 1.37
yhcR; experiment 2
  Ratio (treated/untreated): 10.5
  Signal in pHBA treated: 7.18
yhcP; experiment 1
  Ratio (treated/untreated): 6.45
  Signal in pHBA treated: 7.52
yhcP; experiment 2
  Ratio (treated/untreated): 12.1
  Signal in pHBA treated: 12.0
yhcQ; experiment 1
  Ratio (treated/untreated): 4.09
  Signal in pHBA treated: 1.61
yhcQ; experiment 2
  Ratio (treated/untreated): 22.3
  Signal in pHBA treated: 6.02
[4]; 1.6 mM pHBA sodium salt
  RLU yhcS-: 1.02 RLU
  Ratio treated/control yhcS-: 1.25
[4]; 3.1 mM pHBA sodium salt
  RLU yhcS-: 1.16 RLU
  Ratio treated/control yhcS-: 1.42
[4]; 6.2 mM pHBA sodium salt
  RLU yhcS-: 1.42 RLU
  Ratio treated/control yhcS-: 1.75
[4]; 12.5 mM pHBA sodium salt
  RLU yhcS-: 1.82 RLU
  Ratio treated/control yhcS-: 2.23
[4]; 25 mM pHBA sodium salt
  RLU yhcS-: 1.59 RLU
  Ratio treated/control yhcS-: 1.95
[4]; 50 mM pHBA sodium salt
  RLU yhcS-: 0.614 RLU
  Ratio treated/control yhcS-: 0.753
[4]; 100 mM pHBA sodium salt
  RLU yhcS-: 0.045 RLU
  Ratio treated/control yhcS-: 0.055
